≈ marks a conversion by molar mass, not a printed value. Like-named read-outs stand apart in the source and are kept apart here.
How the values were obtained:
[1] = tested on: U937 human lymphoma cells; assay: Cell death assay in U937 cells (sulforhodamine B, 72 h); type: cell-based; conditions: Homo sapiens, U-937, 72 h
Experimental: To each well was added 2 μL of 100× compound stock solutions in DMSO at varying concentrations so that the cells were treated with concentrations between 0 μM and 100 μM compound. Each concentration was tested in quintuplicate. In each plate 5 wells received 10 μM etoposide as a positive control and 5 wells received 2 μL of DMSO as a negative control. […] 1 Specifically, to each well of the plate was added 50 μL of an 80% (w/v) solution of TCA in H2O and the plates were allowed to rest at 4° C. overnight. The plates were then washed gently with a steam of H2O five times to remove the excess TCA and precipitated serum proteins. […] After staining, the wells were gently washed 5 times with 100 μL of 1% (v/v) acetic acid to remove the unbound dye. The plates were then allowed to air dry. […] The OD was then read at 510 nm in a Molecular Dynamics plate reader and the percent cell death calculated and normalized to the positive control (100% cell death) and the negative control (0% cell death). The percent cell death was averaged for each compound concentration and plotted as a function of compound concentration. The data were fit to a logistical dose response curve using Table curve 2D and the IC50 value was calculated. The experiment was repeated three times and the average of the calculated IC50 values was reported. The standard error of the mean (SEM) was determined and reported for the triplicate experiments.
U-937 cells grow in culture as a suspension.

[2] = Solubility in β-cyclodextran; type: physicochemical
[3] = Formulation of PAC-1 in aqueous 2-hydroxypropyl-β-cyclodextrin; type: physicochemical
Source text: Formulation of PAC-1. […] Complete dissolution requires acidification of the aqueous solution to pH 1.5-2, and then the solution is restored to pH 5-6.

C57/BL6 mice = assay: Neurotoxicity in mice after intravenous administration; type: in vivo, mouse; conditions: for Neurotoxicity: Mice, preliminary results
[4] = tested on: healthy research hound dog; assay: Neurotoxicity in dogs; type: in vivo
Source text: Further information about this compound is described elsewhere herein.

EL-4 = assay: Cytotoxicity in EL-4 cells (sulforhodamine B, 72 h); type: cell-based; conditions: EL4, EL-4, Mouse Lymphoma
17-71 = assay: Cytotoxicity in 17-71 cells (MTS cell viability assay); type: cell-based; conditions: Canis lupus familiaris, 17-71, Dog Lymphoma
GL-1 = assay: Cytotoxicity in GL-1 cells (sulforhodamine B, 72 h); type: cell-based; conditions: Canis lupus familiaris, GL-1, Dog Lymphoma
OSW = assay: Cytotoxicity in OSW cells (sulforhodamine B, 72 h); type: cell-based; conditions: Canis lupus familiaris, Dog Lymphoma
Jurkat = assay: Cytotoxicity in Jurkat cells (sulforhodamine B, 72 h); type: cell-based; conditions: Human Leukemia
SK-Mel-5 = assay: Cytotoxicity in SK-Mel-5 cells (sulforhodamine B, 72 h); type: cell-based; conditions: SK-Mel-5, Human Melanoma
HeLa = assay: Cytotoxicity in HeLa cells (sulforhodamine B, 72 h); type: cell-based; conditions: Human Cervical
MDA-MB-231 = assay: Cytotoxicity in MDA-MB-231 cells (sulforhodamine B, 72 h); type: cell-based; conditions: MDA-MB-231, Human Breast
U-937 cells = assay: Induction of apoptosis, annexin V/PI staining; type: cell-based, human; conditions: 50 μM, 12 hours
Experimental: The cells were centrifuged (200 g for 5 min), washed with PBS (2 mL), resuspended in 500 μL Annexin V Binding Buffer. To each sample was added 10 μL of FITC conjugated Annexin V stain (Southern Biotech) and 10 μL of propidium iodide (Sigma) to a final concentration of 50 μg/mL. Cell populations were analyzed on a Benton Dickinson LSR II cell flow cytometer.

Compound: C=CCc1cccc(/C=N/NC(=O)CN2CCN(Cc3ccccc3)CC2)c1O [PAC-1]
- IC50 ([1]; read-out: IC50 Value (μM), U-937, Human Lymphoma, 72 hours): 9.3 ± 0.5 µM
- IC50 ([1]; read-out: U937 (IC50 μM), 72 h exposure, sulforhodamine B assay): 4.8 ± 1 µM
- Solubility in β-Cyclodextran (mg β-CD/μmol Compound) [2]: 5.3 mg β-CD/μmol Compound
- solubility ([3]; aqueous 200 mg/mL 2-hydroxypropyl-β-cyclodextrin solution, aqueous with cosolvent or surfactant or cyclodextrin, aqueous 200 mg/mL solution of 2-hydroxypropyl-β-cyclodextrin): 20 mg/mL (≈ 51 mM)
- stability in solution ([3]; stored at 4° C., pH 5-6): at least 5 days
- Neurotoxicity (C57/BL6 mice; 12.5 mg/kg): No
- Neurotoxicity (C57/BL6 mice; 37.5 mg/kg): Yes
- clinical signs of toxicity (C57/BL6 mice; mice, 10 mg/kg i.v., observed 24 hours): no clinical signs of toxicity were observed
- clinical signs of toxicity (C57/BL6 mice; mice, 20 mg/kg i.v.): mild neurological symptoms including lethargy, and mild ataxia
- persistence of symptoms after injection (C57/BL6 mice; mice, 20 mg/kg i.v.): 20 min
- ataxia (incidence) (C57/BL6 mice; mice, 30 mg/kg i.v.): 3/3
- clinical signs of toxicity (C57/BL6 mice; mice, 30 mg/kg i.v.): overt signs of neurotoxicity
- duration of neurotoxicity (C57/BL6 mice; mice, 30 mg/kg i.v.): approximately 15 minutes
- loss of balance (incidence) (C57/BL6 mice; mice, 30 mg/kg i.v.): 3/3
- onset of neurotoxicity after injection (C57/BL6 mice; mice, 30 mg/kg i.v.): ≤ 5 min
- spasms (incidence) (C57/BL6 mice; mice, 30 mg/kg i.v.): 1/3
- clinical signs of toxicity (C57/BL6 mice; mice, 50 mg/kg i.v.): acute neurotoxic symptoms with more pronounced ataxia and loss of balance
- toxicity at higher doses ([4]; dog, formulation with 2-hydroxypropyl-β-cyclodextrin): acute neurological toxicity (ataxia and seizure)
- duration of neurotoxicity ([4]; one hound dog, 60 mg/kg i.v.): 20 min
- IC50 (EL-4): 3.8 ± 0.9 µM
- IC50 (17-71): 2.5 ± 0.9 µM
- IC50 (GL-1): 4.9 ± 0.3 µM
- IC50 (OSW): 8.6 ± 1.3 µM
- IC50 (Jurkat): 5.7 ± 2.8 µM
- IC50 (SK-Mel-5): 11.5 ± 3.6 µM
- IC50 (HeLa): 15.5 ± 3.8 µM
- IC50 (MDA-MB-231): 9.9 ± 1 µM
- apoptosis (annexin V staining) (U-937 cells): ~40%

Source: US9643960B2, “Procaspase activating compounds” (The Board of Trustees of the University of Illinois, priority 2009, dated 2017)
